Key:
[1] = tested on: phospho-ERK in AsPC-1 (G12D) cells; assay: Inhibition of KRas-mediated phosphorylation of ERK (in-cell western); type: cell-based; settings: Homo sapiens, ASPC1, 3 h, 3 hours compound, phospho-ERK normalized to GAPDH
Method in brief: (§1)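 After a 3-hour incubation with diluted compound in 0.5% DMSO, cells are fixed, permeabilized and stained overnight at 4° C for phosphorylated ERK and GAPDH.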

[2] = tested on: phospho-ERK in NCI-H460 (Q61H) cells; assay: as above; type: cell-based; settings: Homo sapiens, NCI-H460, 3 h, 3 hours compound, phospho-ERK normalized to GAPDH
Method in brief: as §1

[3] = tested on: phospho-ERK in NCI-H727 (G12V) cells; assay: as above; type: cell-based; settings: Homo sapiens, NCI-H727, 3 h, 3 hours compound, phospho-ERK normalized to GAPDH
Method in brief: as §1

KRas G12D = KRas G12D (Homo sapiens, UniProt P01116, G12D); assay: biochemical;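 further: TR-FRET displacement binding assay on KRas, read after a one-hour incubation at room temperature, IC50 fitted from percent-of-control values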
Sequence of KRas G12D (P01116 1-169 isoform P01116-2 G12D): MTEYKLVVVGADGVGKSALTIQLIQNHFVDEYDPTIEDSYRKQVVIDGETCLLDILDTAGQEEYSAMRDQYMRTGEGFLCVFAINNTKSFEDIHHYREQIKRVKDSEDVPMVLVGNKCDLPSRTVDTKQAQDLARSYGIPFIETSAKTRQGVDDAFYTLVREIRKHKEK
Description: (§2) The ability of a compound to bind to KRas was measured using a TR-FRET displacement assay. […] After a 60-minute incubation at room temperature, the reaction was measured using a BMG LABTECH CLARIO star Plus via TR-FRET. […] The POC values were fit to a 4-parameter IC50 equation and the IC50 value reported.

KRas G12V = KRas G12V (Homo sapiens, UniProt P01116, G12V); assay: biochemical;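 further: KRas binding measured by TR-FRET displacement at room temperature, IC50 fitted from percent of control values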
Sequence of KRas G12V (P01116 1-169 isoform P01116-2 G12V): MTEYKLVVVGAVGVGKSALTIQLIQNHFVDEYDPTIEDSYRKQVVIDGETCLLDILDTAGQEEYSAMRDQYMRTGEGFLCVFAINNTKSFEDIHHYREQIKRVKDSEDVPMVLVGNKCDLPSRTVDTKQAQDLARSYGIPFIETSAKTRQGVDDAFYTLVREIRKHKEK
Description: as §2

KRas G12R = KRas G12R (Homo sapiens, UniProt P01116, G12R); assay: biochemical;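 further: TR-FRET displacement assay of compound binding to KRas, read after one hour at room temperature, potency from a four-parameter fit of percent-of-control values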
Sequence of KRas G12R (P01116 1-169 isoform P01116-2 G12R): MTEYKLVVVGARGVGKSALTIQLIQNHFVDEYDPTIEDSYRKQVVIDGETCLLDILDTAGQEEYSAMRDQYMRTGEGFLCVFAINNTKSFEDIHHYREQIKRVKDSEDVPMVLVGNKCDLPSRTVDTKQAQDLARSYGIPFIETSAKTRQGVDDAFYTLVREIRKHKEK
Description: as §2

pERK in MKN1 cells = assay: Inhibition of KRas phosphorylation of ERK (Cisbio HTRF pERK assay); settings: Homo sapiens, MKN-1, 3 h, read-out: Inhibition (HTRF IC50) of KRas-mediated Phosphorylation of ERK, MKN1
pERK in PSN1 cells = assay: as above; settings: Homo sapiens, PSN1, 3 h, read-out: Inhibition (HTRF IC50) of KRas-mediated Phosphorylation of ERK, PSN1
pERK in ASPC1 cells = assay: as above; settings: Homo sapiens, ASPC1, read-out: Inhibition (HTRF IC50) of KRas-mediated Phosphorylation of ERK, AsPC-1
pERK in H727 cells = assay: as above; settings: Homo sapiens, NCI-H727, read-out: Inhibition (HTRF IC50) of KRas-mediated Phosphorylation of ERK, H727
pERK in A549 cells = assay: as above; settings: Homo sapiens, A549, read-out: Inhibition (HTRF IC50) of KRas-mediated Phosphorylation of ERK, A549
pERK in H460 cells = assay: as above; settings: Homo sapiens, NCI-H460, read-out: Inhibition (HTRF IC50) of KRas-mediated Phosphorylation of ERK, H460
pERK in HCT116 cells = assay: as above; settings: Homo sapiens, HCT-116, read-out: Inhibition (HTRF IC50) of KRas-mediated Phosphorylation of ERK, HCT116
pERK in H358 cells = assay: as above; settings: Homo sapiens, NCI-H358, read-out: Inhibition (HTRF IC50) of KRas-mediated Phosphorylation of ERK, H358
[4] = tested on: phospho-ERK in MKN1 (WTdep) cells; assay: Inhibition of KRas-mediated phosphorylation of ERK (in-cell western); type: cell-based; settings: Homo sapiens, MKN-1, 3 hours compound, phospho-ERK normalized to GAPDH
Method in brief: as §1

KRas G12A = KRas G12A (Homo sapiens, UniProt P01116, G12A); assay: biochemical;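 further: binding to KRas measured by TR-FRET displacement after one hour at room temperature, IC50 from a four-parameter fit of percent-of-control values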
Sequence of KRas G12A (P01116 1-169 isoform P01116-2 G12A): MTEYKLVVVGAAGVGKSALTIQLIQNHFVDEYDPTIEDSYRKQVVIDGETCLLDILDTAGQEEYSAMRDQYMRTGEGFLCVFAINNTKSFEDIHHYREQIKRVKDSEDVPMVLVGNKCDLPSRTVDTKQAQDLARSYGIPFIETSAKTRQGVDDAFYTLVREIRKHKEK
Description: as §2

KRas G12S = KRas G12S (Homo sapiens, UniProt P01116, G12S); assay: biochemical;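 further: TR-FRET displacement binding to KRas, read after one hour incubation at room temperature, IC50 from four-parameter fit of percent of control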
Sequence of KRas G12S (P01116 1-169 isoform P01116-2 G12S): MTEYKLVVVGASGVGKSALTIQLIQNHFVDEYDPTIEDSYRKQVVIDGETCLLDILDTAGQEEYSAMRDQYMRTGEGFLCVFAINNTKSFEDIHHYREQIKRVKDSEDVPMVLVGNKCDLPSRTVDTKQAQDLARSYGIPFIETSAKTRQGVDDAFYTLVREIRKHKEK
Description: as §2

KRas G12C = KRas G12C (Homo sapiens, UniProt P01116, G12C); assay: biochemical;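 further: binding to KRas assessed by TR-FRET displacement after one hour incubation at room temperature, potency fitted from percent-of-control values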
Sequence of KRas G12C (P01116 1-169 isoform P01116-2 G12C): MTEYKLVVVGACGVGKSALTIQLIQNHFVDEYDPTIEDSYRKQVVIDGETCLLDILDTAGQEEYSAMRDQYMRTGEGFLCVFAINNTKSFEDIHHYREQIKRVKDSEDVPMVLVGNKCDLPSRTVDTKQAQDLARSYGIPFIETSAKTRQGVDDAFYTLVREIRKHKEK
Description: as §2

KRas WT = KRas WT (Homo sapiens, UniProt P01116); assay: biochemical;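 further: binding to KRas read as TR-FRET displacement after a one-hour room-temperature incubation, IC50 derived from percent-of-control values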
Sequence of KRas WT (P01116 1-169 isoform P01116-2): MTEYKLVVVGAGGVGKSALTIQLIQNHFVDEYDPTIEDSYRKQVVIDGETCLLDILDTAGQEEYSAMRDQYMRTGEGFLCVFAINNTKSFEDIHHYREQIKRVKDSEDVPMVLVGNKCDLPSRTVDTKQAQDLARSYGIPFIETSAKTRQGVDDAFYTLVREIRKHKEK
Description: as §2

| IC50 (KRas G12D) [nM] | IC50 (KRas G12V) [nM] | IC50 (KRas G12R) [nM] | IC50 (pERK in MKN1 cells) [nM] | IC50 (pERK in PSN1 cells) [nM] | IC50 (pERK in ASPC1 cells) [nM] | IC50 (pERK in H727 cells) [nM] | IC50 (pERK in A549 cells) [nM] | IC50 (pERK in H460 cells) [nM] | IC50 (pERK in HCT116 cells) [nM] | IC50 (pERK in H358 cells) [nM] | IC50 (KRas G12A) [nM] | IC50 (KRas G12S) [nM] | IC50 (KRas G12C) [nM] | IC50 (KRas WT) [nM] | SMILES | IC50 [1] [nM] | IC50 [2] [nM] | IC50 [3] [nM] | IC50 [4] [nM] |
| --- | --- | --- | --- | --- | --- | --- | --- | --- | --- | --- | --- | --- | --- | --- | --- | --- | --- | --- | --- |
| ≤ 2 | ≤ 2 | 3 | 7 | 1230 | 7 | 90 | 44 | 39 | 91 | 15 | – | – | – | – | CCc1c(F)ccc2cc(O)cc(-c3ncc4c(N5CCCC(O)(C(F)F)C5)nc(OC[C@@]56CCCN5C[C@H](F)C6)nc4c3F)c12 (stereo partly drawn) [Example 184] | 66 | 30 | 201 | – |
| ≤ 2 | ≤ 2 | ≤ 2 | 7 | 1380 | 38 | 89 | – | – | – | 14 | – | – | – | – | CCc1c(F)ccc2cc(O)cc(-c3ncc4c(N5CCC[C@@]6(CNC(=O)N6)C5)nc(OC[C@@]56CCCN5C[C@H](F)C6)nc4c3F)c12 [Example 300, (R)-7-(7-(8-ethyl-7-fluoro-3-hydroxynaphthalen-1-yl)-8-fluoro-2-(((2R,7aS)-2-fluorohexahydro-1H-pyrrolizin-7a-yl)methoxy)pyrido[4,3-d]pyrimidin-4-yl)-1,3,7triazaspiro[4.5]decan-2-one] | 251 | 71 | 372 | 37 |
| 4 | ≤ 2 | 3 | 2 | 8330 | 54 | 37 | 113 | 57 | 26 | 26 | – | – | – | – | CCc1c(F)ccc2cc(O)cc(-c3ncc4c(N5CCCCCC(S(C)(=O)=O)C5)nc(OC[C@@]56CCCN5C[C@H](F)C6)nc4c3F)c12 (stereo partly drawn) [Example 309, 5-ethyl-6-fluoro-4-(8-fluoro-2-(((2R,7aS)-2-fluorohexahydro-1H-pyrrolizin-7a-yl)methoxy)-4-(3-(methylsulfonyl)azocan-1-yl)pyrido[4,3-d]pyrimidin-7-yl)naphthalen-2-ol] | 176 | 59 | 272 | – |
| ≤ 2 | ≤ 2 | ≤ 2 | 7 | 2120 | 13 | 28 | 38 | 38 | 42 | 4 | ≤ 2 | ≤ 2 | ≤ 2 | ≤ 2 | CCc1c(F)ccc2cc(O)cc(-c3ncc4c(N5CCC[C@@](C)(O)C5)nc(OC[C@]56CCCN5[C@H](COC(=O)N(C)C)CC6)nc4c3F)c12 [Example 313, ((3S,7aR)-7a-(((7-(8-ethyl-7-fluoro-3-hydroxynaphthalen-1-yl)-8-fluoro-4-((R)-3-hydroxy-3-methylpiperidin-1-yl)pyrido[4,3-d]pyrimidin-2-yl)oxy)methyl)hexahydro-1H-pyrrolizin-3-yl)methyl dimethylcarbamate] | – | – | – | – |
| ≤ 2 | ≤ 2 | ≤ 2 | 3 | 407 | 9 | 21 | 19 | 14 | 21 | 2 | ≤ 2 | ≤ 2 | ≤ 2 | ≤ 2 | CCc1c(F)ccc2cc(O)cc(-c3ncc4c(N5CCC[C@@](C)(O)C5)nc(OC[C@@]56CCCN5[C@H](COC(=O)N(C)C)CC6)nc4c3F)c12 [Example 314, ((3S,7aS)-7a-(((7-(8-ethyl-7-fluoro-3-hydroxynaphthalen-1-yl)-8-fluoro-4-((R)-3-hydroxy-3-methylpiperidin-1-yl)pyrido[4,3-d]pyrimidin-2-yl)oxy)methyl)hexahydro-1H-pyrrolizin-3-yl)methyl dimethylcarbamate] | – | – | – | – |
| ≤ 2 | ≤ 2 | ≤ 2 | 20 | 3930 | 40 | 46 | 197 | 287 | 98 | 985 | ≤ 2 | ≤ 2 | ≤ 2 | ≤ 2 | CCc1c(F)ccc2cc(O)cc(-c3ncc4c(N5CCCCCC5)nc(OC[C@@]56CCCN5C[C@H](F)C6)nc4c3F)c12 [Example 317, 4-(4-(azepan-1-yl)-8-fluoro-2-(((2R,7aS)-2-fluorohexahydro-1H-pyrrolizin-7a-yl)methoxy)pyrido[4,3-d]pyrimidin-7-yl)-5-ethyl-6-fluoronaphthalen-2-ol] | – | – | – | – |
| ≤ 2 | ≤ 2 | ≤ 2 | 3 | 7760 | 16 | 30 | 99 | 71 | 39 | 7 | ≤ 2 | ≤ 2 | ≤ 2 | ≤ 2 | CCc1c(F)ccc2cc(O)cc(-c3ncc4c(N5CCOC[C@@](C)(O)C5)nc(OCC5(CN6CCCC6)CC5)nc4c3F)c12 [Example 321, (S)-4-(7-(8-ethyl-7-fluoro-3-hydroxynaphthalen-1-yl)-8-fluoro-2-((1-(pyrrolidin-1-ylmethyl)cyclopropyl)methoxy)pyrido[4,3-d]pyrimidin-4-yl)-6-methyl-1,4-oxazepan-6-ol] | – | – | – | – |
| ≤ 2 | ≤ 2 | ≤ 2 | 8 | ≥ 10000 | 10 | 26 | 138 | 253 | 274 | 18 | ≤ 2 | ≤ 2 | ≤ 2 | ≤ 2 | CCc1c(F)ccc2cc(O)cc(-c3ncc4c(N5CCCn6nc(C(=O)N(C)C)cc6C5)nc(OC[C@@]56CCCN5C[C@H](F)C6)nc4c3F)c12 [Example 326, 5-(7-(8-ethyl-7-fluoro-3-hydroxynaphthalen-1-yl)-8-fluoro-2-(((2R,7aS)-2-fluorohexahydro-1H-pyrrolizin-7a-yl)methoxy)pyrido[4,3-d]pyrimidin-4-yl)-N,N-dimethyl-5,6,7,8-tetrahydro-4H-pyrazolo[1,5-a][1,4]diazepine-2-carboxamide] | – | – | – | – |
| ≤ 2 | ≤ 2 | ≤ 2 | 8 | 409 | 14 | 5 | 18 | 21 | 9 | 1 | ≤ 2 | ≤ 2 | ≤ 2 | ≤ 2 | C#Cc1c(F)ccc2cc(O)cc(-c3ncc4c(N5C[C@@H]6C[C@H](C5)[C@H](O)C6)nc(OC[C@@]56CCCN5C[C@H](F)C6)nc4c3F)c12 [Example 388, (1R,5R,6R)-3-(7-(8-ethynyl-7-fluoro-3-hydroxynaphthalen-1-yl)-8-fluoro-2-(((2R,7aS)-2-fluorohexahydro-1II-pyrrolizin-7a-yl)methoxy)pyrido[4,3-d]pyrimidin-4-yl)-3-azabicyclo[3,2,1]octan-6-ol] | – | 16 | 16 | – |

From patent US12398154B2, “Azaquinazoline pan-KRas inhibitors” (Mirati Therapeutics, Inc., priority 2020, dated 2025)
